Measured values taken from paper PMC4311969 (Journal of the American Chemical Society, 2015).
Where “and” joins values, the source holds several entries; their conditions need not be identical. Identical values can stand only once. Counter-ions that a name gives are not always drawn. Like-named read-outs stand apart in the source and are kept apart here. One block for each compound: values may come before it.

What was measured:
[1] = target: T1, human liver GPDH (hlGPDH) (Homo sapiens, UniProt P21695); assay type: biochemical; conditions: identical plots at 0.10 or 0.20 mM NADH; printed ≪
T1 sequence (P21695 1-349): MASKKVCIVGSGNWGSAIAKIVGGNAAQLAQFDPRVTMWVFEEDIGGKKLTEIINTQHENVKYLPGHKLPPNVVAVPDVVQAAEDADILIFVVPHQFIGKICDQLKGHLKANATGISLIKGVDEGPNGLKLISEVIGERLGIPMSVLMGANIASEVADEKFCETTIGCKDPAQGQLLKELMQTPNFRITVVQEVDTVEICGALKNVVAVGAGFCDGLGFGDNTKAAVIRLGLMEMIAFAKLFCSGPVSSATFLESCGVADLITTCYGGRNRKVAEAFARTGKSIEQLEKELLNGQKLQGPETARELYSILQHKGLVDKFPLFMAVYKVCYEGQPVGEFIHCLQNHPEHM

[2] = target: T2, yeast triosephosphate isomerase (ScTIM) (Saccharomyces cerevisiae, UniProt P00942); test: Oxydianion activation of ScTIM-catalyzed reactions of [1-13C]-GA in D2O; assay type: biochemical; conditions: for Kd: read-out: KX, dissociation constant for release of the oxydianion from ScTIM, 20 mM [1-^13C]-GA in D2O, pD 7.0 (20 mM imidazole), I = 0.1 (NaCl), fit to eq 3; for Kd / RT ln(K^‡)X, intrinsic Gibbs dianion binding free energy: 25 °C; for RT ln(K^‡)X, intrinsic Gibbs dianion binding free energy: [1-^13C]-GA in D2O
T2 sequence (P00942 1-248): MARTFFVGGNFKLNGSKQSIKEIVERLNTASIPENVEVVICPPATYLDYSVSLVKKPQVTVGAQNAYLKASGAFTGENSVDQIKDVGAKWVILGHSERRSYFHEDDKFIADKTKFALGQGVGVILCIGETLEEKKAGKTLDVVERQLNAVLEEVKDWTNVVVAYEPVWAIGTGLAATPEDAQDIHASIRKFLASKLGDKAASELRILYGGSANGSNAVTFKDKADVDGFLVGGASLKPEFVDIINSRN

[3] = target: T3, human liver glycerol 3-phosphate dehydrogenase (hlGPDH) (Homo sapiens, UniProt P21695); test: Oxydianion activation of hlGPDH-catalyzed reduction of GA by NADH; assay type: biochemical; conditions: for RT ln(K^‡)X, intrinsic Gibbs dianion binding free energy: hlGPDH-catalyzed reduction of GA
T3 sequence (P21695 1-349): T1 sequence (P21695 1-349)

[4] = target: T4, yeast orotidine monophosphate decarboxylase (ScOMPDC) (Saccharomyces cerevisiae, UniProt P03962, C155S); conditions: cited from earlier work; for intrinsic oxydianion binding energy (ΔG^‡): ScOMPDC-catalyzed decarboxylation of EO
T4 sequence (P03962 1-267 C155S): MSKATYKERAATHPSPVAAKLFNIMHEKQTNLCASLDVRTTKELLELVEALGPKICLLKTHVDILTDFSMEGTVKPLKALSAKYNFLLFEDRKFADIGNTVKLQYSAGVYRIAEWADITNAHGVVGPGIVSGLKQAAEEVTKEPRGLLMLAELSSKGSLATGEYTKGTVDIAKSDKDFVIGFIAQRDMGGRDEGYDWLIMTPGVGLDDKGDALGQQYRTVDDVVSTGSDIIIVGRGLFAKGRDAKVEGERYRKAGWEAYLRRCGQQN

[5] = target: T4, yeast orotidine monophosphate decarboxylase (ScOMPDC); test: Oxydianion activation of ScOMPDC-catalyzed decarboxylation of EO; assay type: biochemical
ScOMPDC = conditions: cited from earlier work
[6] = pH 7.5 (10 mM TEA), 25 °C, 0.2 mM NADH, I = 0.12 (NaCl)

- Kd [2]: 7 ± 1 mM
- (kcat)E·X, first-order rate constant for turnover of the Michaelis complex [3, 6]: 0.0190 ± 0.002 s^–1
Structure (SMILES): O=S(O)(O)=S [S2O3^2–, thiosulfate dianion]
- intrinsic oxydianion binding energy (ΔG^‡) [4]: -4.6 kcal/mol

- RT ln(K^‡)X, intrinsic Gibbs dianion binding free energy ([3]; 25 °C): –5.9 kcal/mol
- (kcat)E·X, first-order rate constant for turnover of the Michaelis complex [3, 6]: 0.360 ± 0.040 s^–1
Structure (SMILES): O=S(=O)(O)O [SO4^2–, sulfate]
- intrinsic oxydianion binding energy (ΔG^‡) [4]: -4.5 kcal/mol

- RT ln(K^‡)X, intrinsic Gibbs dianion binding free energy ([3]; 25 °C): –4.9 kcal/mol
- (kcat)E·X, first-order rate constant for turnover of the Michaelis complex [3, 6]: 0.032 ± 0.002 s^–1
Structure (SMILES): O=P(O)(O)O [HOPO3^2–, phosphate]
- intrinsic oxydianion binding energy (ΔG^‡) [4]: -3.0 kcal/mol

Second part, the compound before the results:

Structure (SMILES): NC(=O)C1=CN([C@@H]2O[C@H](COP(=O)(O)OP(=O)(O)OC[C@H]3O[C@@H](n4cnc5c(N)ncnc54)[C@H](O)[C@@H]3O)[C@@H](O)[C@H]2O)C=CC1 [NADH]
- Km [1]: < 100 µM

Structure (SMILES): O=C(O)c1cc(=O)n([C@@H]2OC[C@@H](O)[C@H]2O)c(=O)[nH]1 [EO, 1-(β-D-erythrofuranosyl)orotic acid]
- k′cat, turnover of the complex between enzyme and substrate pieces ([5]; EO + HPO3^2–, calculated using published (kcat/Km)E·HPi and Kd (ref 10)): ≈ 160 ^f s^–1
- Kd ([4]; read-out: Kd of truncated substrate, substrate pieces, EO + HPO3^2–): 100 mM and ~100 mM

Structure (SMILES): O=C(O)c1cc(=O)[nH]c(=O)n1[C@@H]1O[C@H](COP(=O)(O)O)[C@@H](O)[C@H]1O [OMP, Orotidine 5′-monophosphate]
- kcat, turnover of whole substrate (ScOMPDC): 16 s^–1

Structure (SMILES): O=[PH](O)O [HPO3^2–, phosphite dianion]
- intrinsic dianion binding energy (given without sign) ([2]; ScTIM): 6.3 kcal/mol
- RT ln(K^‡)X, intrinsic Gibbs dianion binding free energy ([2]; ScTIM): –6.3 kcal/mol
- RT ln(K^‡)X, intrinsic Gibbs dianion binding free energy ([2]; ScTIM, listed as phosphite dianion): −6.3 kcal/mol
- ratio of (kcat/Km)E·X/KX to (kcat/Km)E ([2]; ScTIM-catalyzed isomerization, substrate pieces): 4.4 × 10^4 M^–1
- Kd [2]: 18 ± 3 mM
- RT ln(K^‡)X, intrinsic Gibbs dianion binding free energy ([3]; 25 °C): –7.5 kcal/mol
- RT ln(K^‡)X, intrinsic Gibbs dianion binding free energy ([3]; 25 °C, listed as phosphite dianion): −7.5 kcal/mol
- (kcat)E·X, first-order rate constant for turnover of the Michaelis complex [3, 6]: 5.5 ± 0.3 s^–1
- Kd ([3]; read-out: KX, dissociation constant for release of the oxydianion from the binary or ternary enzyme complex, pH 7.5 (10 mM TEA), 25 °C, 0.2 mM NADH, I = 0.12 (NaCl)): 70 ± 4 mM
- intrinsic dianion binding energy (given without sign) ([5]; ScOMPDC): 7.7 kcal/mol
- ratio of (kcat/Km)E·X/KX to (kcat/Km)E ([5]; yeast OMPDC-catalyzed decarboxylation, substrate pieces): 4.4 × 10^5 M^–1
- intrinsic oxydianion binding energy (ΔG^‡) [4]: -7.7 kcal/mol

Structure (SMILES): O=S(O)O [SO3^2–]
- intrinsic oxydianion binding energy (ΔG^‡) [4]: -8.3 kcal/mol

Structure (SMILES): O=CCO [GA, glycolaldehyde]
- k′cat, turnover of the complex between enzyme and substrate pieces ([3]; GA + HPO3^2–, estimated as [(kcat/Km)E·HPi]Kd): 5.5 s^–1
- kcat, unactivated reduction of GA ([3]; no dianion, 0.05 mM hlGPDH, pH 7.5, 25 °C, 0.2 mM NADH, I = 0.12 (NaCl)): 3.1 × 10^–4 s^–1
- KGA, unactivated reduction of GA ([3]; no dianion, carbonyl form of GA, pH 7.5, 25 °C, 0.2 mM NADH, I = 0.12 (NaCl)): 6.2 mM
- Kd ([3]; read-out: Kd of truncated substrate, substrate pieces, GA + HPO3^2–): 5 mM

Structure (SMILES): O=[As](O)(O)O [HOAsO3^2–]
- intrinsic oxydianion binding energy (ΔG^‡) [4]: no activation detected
